Laboratory results taken from PMC9516332 (Frontiers in Oncology, 2022).
Like-named read-outs stand apart in the source and are kept apart here.

Legend:
Experiment in all cases: Kinase panel profiling at 1 µmol/L (MSA or IMAP), percentage inhibition
Type in all cases: biochemical
[1] = molecular target: panel of 255 wild-type kinases (Homo sapiens, UniProt Q16539); conditions: read-out: %-inhibition, p38α
[2] = molecular target: T1, panel of 255 wild-type kinases (Homo sapiens, UniProt O94806); conditions: read-out: %-inhibition at 1 µmol/L, PKD3
T1 sequence (O94806 1-890): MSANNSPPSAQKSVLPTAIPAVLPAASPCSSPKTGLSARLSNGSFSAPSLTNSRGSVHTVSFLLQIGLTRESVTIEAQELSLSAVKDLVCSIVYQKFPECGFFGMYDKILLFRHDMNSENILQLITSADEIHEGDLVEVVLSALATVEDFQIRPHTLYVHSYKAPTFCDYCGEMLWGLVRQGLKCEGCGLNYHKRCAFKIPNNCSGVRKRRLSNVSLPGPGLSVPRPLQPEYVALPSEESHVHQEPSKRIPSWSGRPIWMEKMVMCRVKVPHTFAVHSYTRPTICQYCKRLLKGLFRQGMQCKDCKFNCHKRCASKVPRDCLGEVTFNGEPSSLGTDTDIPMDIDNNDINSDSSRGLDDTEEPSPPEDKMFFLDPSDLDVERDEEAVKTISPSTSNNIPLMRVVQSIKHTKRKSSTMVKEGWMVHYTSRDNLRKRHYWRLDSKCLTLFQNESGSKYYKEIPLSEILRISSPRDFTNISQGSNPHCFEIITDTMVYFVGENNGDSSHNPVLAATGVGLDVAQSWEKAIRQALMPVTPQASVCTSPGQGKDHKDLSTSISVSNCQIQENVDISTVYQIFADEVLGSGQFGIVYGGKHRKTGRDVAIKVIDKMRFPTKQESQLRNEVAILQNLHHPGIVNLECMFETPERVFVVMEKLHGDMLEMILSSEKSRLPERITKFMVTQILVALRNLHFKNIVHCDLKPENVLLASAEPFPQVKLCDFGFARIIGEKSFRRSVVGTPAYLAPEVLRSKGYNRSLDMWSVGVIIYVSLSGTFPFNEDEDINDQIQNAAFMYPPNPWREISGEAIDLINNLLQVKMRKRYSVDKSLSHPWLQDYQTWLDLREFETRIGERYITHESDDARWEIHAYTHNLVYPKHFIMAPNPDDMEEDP

[3] = molecular target: panel of 255 wild-type kinases (Homo sapiens, UniProt P68400); conditions: read-out: %-inhibition at 1 µmol/L, CK2α1/β
[4] = molecular target: T2, panel of 255 wild-type kinases (Homo sapiens, UniProt Q13237); conditions: read-out: %-inhibition CGK2
T2 sequence (Q13237 1-762): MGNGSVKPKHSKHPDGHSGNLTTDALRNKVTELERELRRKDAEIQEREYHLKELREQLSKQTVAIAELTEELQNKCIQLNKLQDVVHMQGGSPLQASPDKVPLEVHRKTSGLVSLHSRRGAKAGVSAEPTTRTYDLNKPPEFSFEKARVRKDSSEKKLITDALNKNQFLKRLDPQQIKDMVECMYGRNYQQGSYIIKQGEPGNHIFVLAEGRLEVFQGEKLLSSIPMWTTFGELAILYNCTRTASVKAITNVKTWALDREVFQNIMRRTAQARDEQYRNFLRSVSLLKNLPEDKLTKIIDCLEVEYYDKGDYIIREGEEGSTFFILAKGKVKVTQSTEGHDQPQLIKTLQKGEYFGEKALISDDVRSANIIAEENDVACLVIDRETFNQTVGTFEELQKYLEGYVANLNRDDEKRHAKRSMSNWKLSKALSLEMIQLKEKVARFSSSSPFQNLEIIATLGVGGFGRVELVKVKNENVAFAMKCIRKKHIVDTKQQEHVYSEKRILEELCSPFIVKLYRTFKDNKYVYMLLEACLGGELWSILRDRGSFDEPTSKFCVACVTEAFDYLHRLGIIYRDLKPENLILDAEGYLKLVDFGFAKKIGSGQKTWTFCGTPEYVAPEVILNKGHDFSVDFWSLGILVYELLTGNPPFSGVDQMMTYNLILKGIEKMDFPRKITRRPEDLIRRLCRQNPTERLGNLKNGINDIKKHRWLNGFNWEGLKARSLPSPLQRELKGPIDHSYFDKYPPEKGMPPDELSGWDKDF

[5] = molecular target: panel of 255 wild-type kinases (Homo sapiens, UniProt Q8IU85); conditions: read-out: %-inhibition CaMK1δ
[6] = p38α, 1 µmol/L single concentration
[7] = kinase PKD3, 1 µmol/L single concentration
[8] = kinase CK2α1/β, 1 µmol/L single concentration
[9] = CGK2 kinase assay, 1 µmol/L single concentration
[10] = CaMK1δ kinase assay, 1 µmol/L single concentration

Structure (SMILES)	inhibition at 1 µM [1, 6] [%]	inhibition at 1 µM [2, 7] [%]	inhibition at 1 µM [3, 8] [%]	inhibition at 1 µM [4, 9] [%]	inhibition at 1 µM [5, 10] [%]	inhibition at 1 µM [1] [%]	inhibition at 1 µM [2] [%]	inhibition at 1 µM [3] [%]	inhibition at 1 µM [4] [%]	inhibition at 1 µM [5] [%]
CO[C@]1(C(=O)N[C@@H](C)c2ccc(-n3cc(F)cn3)nc2)CC[C@H](c2nc(C)cc(Nc3cc(C)[nH]n3)n2)CC1 [pralsetinib]	3	3	-2.52	25	-7.54					
COc1cc2ncnc(Nc3ccc(F)c(Cl)c3)c2cc1NC(=O)/C=C/CN1CCCCC1 [dacomitinib]	39	8	-4	10	1.43					
CCn1c(=O)c(-c2cc(NC(=O)Nc3ccccc3)c(F)cc2Br)cc2cnc(NC)cc21 [ripretinib]	88	15	1	0.547	2.32					
Cc1nc(NC(=O)N2CCC[C@H]2C(N)=O)sc1-c1ccnc(C(C)(C)C(F)(F)F)c1 [alpelisib]	2.59	-2.46	-1.52	-5	2					
C=CC(=O)N1CCC([C@@H]2CCNc3c(C(N)=O)c(-c4ccc(Oc5ccccc5)cc4)nn32)CC1 [zanubrutinib]	-1.11	13	-2	-0.389	-1.26					
O=C(Nc1cnn2ccc(N3CCC[C@@H]3c3cc(F)ccc3F)nc12)N1CC[C@H](O)C1 [larotrectinib]	-1.34	8	-2.37	-0.443	3.44					
Cc1cc(Nc2ncnc3ccc(NC4=NC(C)(C)CO4)cc23)ccc1Oc1ccn2ncnc2c1 [tucatinib]	1.53	39	-4	-0.162	-3.73					
FC(F)(F)c1ccc(CNc2ccc(Cc3c[nH]c4ncc(Cl)cc34)cn2)cn1 [pexidartinib]	0.932	-12	0.256	17	4					
Cn1cnc2c(F)c(Nc3ccc(Br)cc3F)c(C(=O)NOCCO)cc21 [binimetinib]	-8	0.731	-4.22	2.58	-8					
CN1CCN(c2ccc(C(=O)Nc3n[nH]c4ccc(Cc5cc(F)cc(F)c5)cc34)c(NC3CCOCC3)c2)CC1 [entrectinib]	7	3	1.84	4.42	16					
COC(=O)N[C@@H](C)CNc1nccc(-c2cn(C(C)C)nc2-c2cc(Cl)cc(NS(C)(=O)=O)c2F)n1 [encorafenib]	35	5	-1	0.267	-7					
C[C@H]1Oc2cc(cnc2N)-c2c(nn(C)c2C#N)CN(C)C(=O)c2ccc(F)cc21 [lorlatinib]	6	1.46	-2	-3	7					
CCN1CCN(c2ccc(Nc3cc(N(C)C(=O)Nc4c(Cl)c(OC)cc(OC)c4Cl)ncn3)cc2)CC1 [infigratinib]	4.45	11	-4	-2	2.23					
COc1ccc(CN2C3CC2CN(c2ccc(-c4cc(OCC(C)(C)O)cn5ncc(C#N)c45)cn2)C3)cn1 [selpercatinib]	-0.132	12	-1.82	16	9					
Cn1cnc2c(F)c(Nc3ccc(Br)cc3Cl)c(C(=O)NOCCO)cc21 [selumetinib]	3.34	0.359	-5	-1.64	-3.34					
CCc1nc(C(N)=O)c(Nc2ccc(N3CCC(N4CCN(C)CC4)CC3)c(OC)c2)nc1NC1CCOCC1 [gilteritinib]	4	53	15	82	39					
CCN1C(=O)N(c2c(F)c(OC)cc(OC)c2F)Cc2cnc3[nH]c(CN4CCOCC4)cc3c21 [pemigatinib]	14	14	-2.8	1.58	17					
Cn1cc(-c2cc3c(N4CCN(c5ncc([C@@](C)(N)c6ccc(F)cc6)cn5)CC4)ncnn3c2)cn1 [avapritinib]	0.843	8	-3.77	4.65	-4.32					
CNC(=O)c1ccc(-c2cnc3ncc(Cc4ccc5ncccc5c4)n3n2)cc1F [capmatinib]						3.37	-3.34	-3.18	-1.13	-10
C[C@H](Nc1ncnc2nc[nH]c12)c1cc2cccc(Cl)c2c(=O)n1-c1ccccc1 [duvelisib]	5	-3.52	-2.47	-0.775	6					
